Measurements reported in patent US8354539B2, “Indole derivatives as IKK2 inhibitors” (Glaxo Group Limited, priority 2009, dated 2013).

Tested on: human whole blood
Assay: Human whole blood assay (LPS stimulated TNFα)
Type: cell-based
Details: read-out: pIC50 potency, inhibition of TNF production (converted)
Protocol: Heparinised blood drawn from normal volunteers was dispensed (100 μl) into microtitre plate wells containing 1.0 μl of an appropriately diluted compound solution in DMSO. After 1 hr incubation at 37° C., 5% CO2, 25 μl LPS solution (S. typhosa) in RPMI 1640 (containing 1% L-glutamine and 1% Penicillin/streptomycin) was added (50 ng/ml final). The samples were incubated at 37° C., 5% CO2 for 20 hours, 50 μls physiological saline (0.138% NaCl) was added and diluted plasma was collected using a Biomek FX liquid handling robot after centrifugation at 1300 g for 10 min. Plasma TNFα content was determined by electrochemiluminescence assay using the Mesoscale (MSD) technology.
20 μl supernatant from PBMC plates or 40 μl from whole blood plates was transferred using the Biomek FX to a 96 well High-Bind MSD assay plate precoated with anti-hTNF alpha capture antibody and containing 25 μl of MSD human serum cytokine assay diluent. […] The plates were shaken at room temperature for a further 1 hour before washing again and adding 150 μl of MSD Read Buffer T (2×). Plates were then read on the MSD Sector 6000 plate reader. For the PBMC assay, supernatant addition to the MSD plates was followed immediately by 20 μl of MSD detection antibody, the plates were then sealed and shaken for 2 hours before addition of 90 μl of MSD Read Buffer P (2.5×). Plates were read on the MSD Sector 6000. […]

With `COCCS(=O)(=O)N1CCC(c2c[nH]c3c(C(N)=O)cc(-c4ccc5c(c4)CN(C(C)C)C5)cc23)CC1` [Compound of formula (I), 5-[2-(1-methylethyl)-2,3-dihydro-1H-isoindol-5-yl]-3-(1-{[2-(methyloxy)ethyl]sulfonyl}-4-piperidinyl)-1H-indole-7-carboxamide] the IC50 was < 316 nM.
